In patent US20060069132A1, “Azolecarboxamide herbicides” (priority 2004, published 2006):
Where two headings read alike, the source gives them in different places.

How the values were obtained:
redroot pigweed = test: Test A pre-/postemergence herbicide test; assay type: in vivo, Amaranthus retroflexus; conditions: for pest or weed control at 500 g/ha / pest or weed control at 2000 g/ha: Amaranthus retroflexus, 240 h
How it was run: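 Pre: seeded sandy loam, directed soil spray, compound in non-phytotoxic solvent + surfactant. Post: 1–2-leaf plants (2–10 cm), sprayed to runoff. Greenhouse ~10 d; visual injury vs untreated, 0–100 scale.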

barnyardgrass = test: Test B pre-/postemergence herbicide test; assay type: in vivo, Echinochloa crus-galli; conditions: for pest or weed control at 500 g/ha / pest or weed control at 125 g/ha: Echinochloa crus-galli
How it was run: (§1)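 Test chemicals in a non-phytotoxic solvent mixture with surfactant were applied preemergence to seeded species and postemergence to plants 2-18 cm tall (1- to 4-leaf stage); rice and barnyardgrass were also tested in a flooded paddy at the 2-leaf stage. Visual rating versus controls after 13-15 days in greenhouse, scale 0 (no effect) to 100 (complete control).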

cocklebur = test: Test B pre-/postemergence herbicide test; assay type: in vivo, Xanthium strumarium; conditions: for pest or weed control at 500 g/ha / pest or weed control at 125 g/ha: Xanthium strumarium
How it was run: as §1

bermudagrass = test: Test C pre-/postemergence herbicide test; assay type: in vivo, Cynodon dactylon
How it was run: (§2)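 Visual injury scores run from 0 (no effect) to 100 (complete control), assessed relative to untreated controls 12 to 14 days after treatment in the greenhouse. Chemicals were formulated in a non-phytotoxic solvent mixture with surfactant and applied to soil after planting or to emerged plants at the 1- to 4-leaf stage.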

Surinam grass = test: Test C pre-/postemergence herbicide test; assay type: in vivo, Urochloa decumbens
How it was run: as §2

morningglory = test: Test C pre-/postemergence herbicide test; assay type: in vivo, Ipomoea coccinea; set-up: key to Plant response rating, Morningglory: 0 = no effect, 100 = complete control
How it was run: as §2

pigweed = test: Test C pre-/postemergence herbicide test; assay type: in vivo, Amaranthus retroflexus
How it was run: as §2

[1] = Postemergence, 500 g ai/ha, scale 0 to 100
[2] = 500 g ai/ha, visual rating 0-100, 0 no effect, 100 complete control, preemergence
[3] = Postemergence, 500 g ai/ha, visual rating after 13 to 15 days, scale 0 (no effect) to 100 (complete control)
[4] = postemergence, 125 g ai/ha, visual rating, scale 0 (no effect) to 100 (complete control)
[5] = preemergence, 125 g ai/ha, 0 to 100 scale, 0 is no effect, 100 is complete control
[6] = 31 g ai/ha, preemergence, scale 0 to 100
[7] = 125 g ai/ha, scale 0 (no effect) to 100 (complete control), visual, 12 to 14 days, preemergence

CCn1nc(C(C)(C)C)cc1C(=O)Nc1cccc(C(=O)OCCF)c1 [Compound 82, 2-fluoroethyl 3-[[[3-(1,1-dimethylethyl)-1-ethyl-1H-pyrazol-5-yl]-carbonyl]amino]benzoate]
pest or weed control at 500 g/ha (redroot pigweed; post-emergence, Postemergence, 500 g ai/ha, 0 to 100 scale, 0 no effect, 100 complete control, read-out: Plant response rating, Pigweed): 50% | pest or weed control at 2000 g/ha (redroot pigweed; post-emergence, Postemergence, 2000 g ai/ha, 0 to 100 scale, 0 no effect, 100 complete control, read-out: Plant response rating, Pigweed): 50% | pest or weed control at 500 g/ha (redroot pigweed; pre-emergence, Preemergence, 500 g ai/ha, visual rating, 0 to 100 scale (0 no effect, 100 complete control), read-out: Pigweed plant response rating): 5% | pest or weed control at 2000 g/ha (redroot pigweed; pre-emergence, Preemergence, 2000 g ai/ha, 0 to 100 scale, 0 no effect, 100 complete control, read-out: Pigweed plant response rating): 35% | pest or weed control at 500 g/ha (barnyardgrass; post-emergence, Postemergence, 500 g ai/ha, visual rating after 13 to 15 days, scale 0 (no effect) to 100 (complete control), read-out: Plant response rating, Barnyardgrass): 20% | pest or weed control at 125 g/ha (barnyardgrass; post-emergence, postemergence, 125 g ai/ha, visual rating, scale 0 (no effect) to 100 (complete control), read-out: Barnyardgrass plant response rating): 10% | pest or weed control at 500 g/ha (barnyardgrass; pre-emergence, Preemergence, 500 g ai/ha, scale 0 to 100, read-out: Barnyardgrass plant response rating): 0% | pest or weed control at 125 g/ha (barnyardgrass; pre-emergence, preemergence, 125 g ai/ha, 0 to 100 scale, 0 is no effect, 100 is complete control, read-out: Plant response rating, Barnyardgrass): 0% | pest or weed control at 500 g/ha (cocklebur; post-emergence, Postemergence, 500 g ai/ha, visual rating after 13 to 15 days, scale 0 (no effect) to 100 (complete control), read-out: Plant response rating, Cocklebur): 100% | pest or weed control at 125 g/ha (cocklebur; post-emergence, postemergence, 125 g ai/ha, visual rating, scale 0 (no effect) to 100 (complete control), read-out: Cocklebur plant response rating): 80% | pest or weed control at 500 g/ha (cocklebur; pre-emergence, Preemergence, 500 g ai/ha, scale 0 to 100, read-out: Cocklebur plant response rating): 0% | pest or weed control at 125 g/ha (cocklebur; pre-emergence, preemergence, 125 g ai/ha, 0 to 100 scale, 0 is no effect, 100 is complete control, read-out: Plant response rating, Cocklebur): 0% | pest or weed control at 250 g/ha (bermudagrass; Cynodon dactylon, post-emergence, 312 h, Postemergence, 250 g ai/ha, scale 0 to 100, read-out: Bermudagrass plant response rating): 0% | pest or weed control at 500 g/ha (bermudagrass; Cynodon dactylon, post-emergence, 312 h, Postemergence, 500 g ai/ha, scale 0 to 100, read-out: Bermudagrass plant response rating): 10% | pest or weed control at 125 g/ha (bermudagrass; Cynodon dactylon, post-emergence, 312 h, postemergence, 125 g ai/ha, scale 0 to 100, read-out: Plant response rating, Bermudagrass): 0% | pest or weed control at 62 g/ha (bermudagrass; Cynodon dactylon, post-emergence, 312 h, postemergence, 62 g ai/ha, scale 0 to 100, read-out: Plant response rating, Bermudagrass): 0% | Surinam Grass plant response rating (Surinam grass; [1]): 40 | pest or weed control at 250 g/ha (Surinam grass; Urochloa decumbens, post-emergence, 312 h, Postemergence, 250 g ai/ha, scale 0 to 100, 0 no effect, 100 complete control, read-out: Plant response rating, Surinam Grass): 20% | pest or weed control at 125 g/ha (Surinam grass; Urochloa decumbens, post-emergence, 312 h, postemergence, 125 g ai/ha, scale 0 to 100, read-out: Plant response rating, Surinam Grass): 10% | pest or weed control at 62 g/ha (Surinam grass; Urochloa decumbens, post-emergence, 312 h, postemergence, 62 g ai/ha, scale 0 to 100, read-out: Plant response rating, Surinam Grass): 10% | pest or weed control at 250 g/ha (morningglory; Ipomoea, post-emergence, Postemergence, 250 g ai/ha, scale 0 to 100, 0 no effect, 100 complete control, read-out: Plant response rating, Morningglory): 50% | pest or weed control at 125 g/ha (morningglory; Ipomoea, post-emergence, postemergence, 125 g ai/ha, scale 0 to 100, read-out: Plant response rating, Morningglory): 10% | pest or weed control at 62 g/ha (morningglory; Ipomoea, post-emergence, postemergence, 62 g ai/ha, scale 0 to 100, read-out: Plant response rating, Morningglory): 10% | Morningglory plant response rating (morningglory; [1]): 50 | pest or weed control at 250 g/ha (pigweed; Amaranthus retroflexus, post-emergence, Postemergence, 250 g ai/ha, scale 0 to 100, 0 no effect, 100 complete control, read-out: Plant response rating, Pigweed): 100% | pest or weed control at 125 g/ha (pigweed; Amaranthus retroflexus, post-emergence, postemergence, 125 g ai/ha, scale 0 to 100, read-out: Plant response rating, Pigweed): 100% | pest or weed control at 62 g/ha (pigweed; Amaranthus retroflexus, post-emergence, postemergence, 62 g ai/ha, scale 0 to 100, read-out: Plant response rating, Pigweed): 85% | Pigweed plant response rating (pigweed; [1]): 100

CCOC(=O)c1cc(NC(=O)c2cc(C(C)(C)C)nn2CC)ccc1OCC [Compound 95]
Pigweed plant response rating (redroot pigweed; Postemergence, 500 g ai/ha, 0 to 100 scale, 0 no effect, 100 complete control): 85 | Plant response rating, Pigweed (redroot pigweed; Postemergence, 2000 g ai/ha, 0 to 100 scale, 0 no effect, 100 complete control): 100 | Pigweed plant response rating (redroot pigweed; Preemergence, 500 g ai/ha, visual rating, 0 to 100 scale (0 no effect, 100 complete control)): 100 | Pigweed plant response rating (redroot pigweed; Preemergence, 2000 g ai/ha, 0 to 100 scale, 0 no effect, 100 complete control): 100 | Plant response rating, Barnyardgrass (barnyardgrass; [2]): 80 | Plant response rating, Barnyardgrass (barnyardgrass; [3]): 20 | Barnyardgrass plant response rating (barnyardgrass; [4]): 0 | Plant response rating, Barnyardgrass (barnyardgrass; [5]): 50 | Plant response rating, Cocklebur (cocklebur; [2]): 0 | Plant response rating, Cocklebur (cocklebur; [3]): 70 | Cocklebur plant response rating (cocklebur; [4]): 60 | Plant response rating, Cocklebur (cocklebur; [5]): 0 | Plant response rating, Bermudagrass (bermudagrass; [6]): 10 | Plant response rating (0 = no effect, 100 = complete control), Bermudagrass (bermudagrass; 62 g ai/ha, preemergence): 70 | Plant response rating, Bermudagrass (bermudagrass; [7]): 100 | Plant response rating, Bermudagrass (bermudagrass; 250 g ai/ha, scale 0 to 100 (0 no effect, 100 complete control), visual, 12 to 14 days, preemergence): 100 | Plant response rating, Surinam Grass (Surinam grass; [6]): 0 | Plant response rating (0 = no effect, 100 = complete control), Surinam Grass (Surinam grass; 62 g ai/ha, preemergence): 0 | Plant response rating, Surinam Grass (Surinam grass; [7]): 10 | Plant response rating, Morningglory (morningglory; [6]): 0 | Plant response rating (0 = no effect, 100 = complete control), Morningglory (morningglory; 62 g ai/ha, preemergence): 5 | Plant response rating, Morningglory (morningglory; [7]): 10 | Plant response rating, Pigweed (pigweed; [6]): 100 | Plant response rating (0 = no effect, 100 = complete control), Pigweed (pigweed; 62 g ai/ha, preemergence): 100 | Plant response rating, Pigweed (pigweed; [7]): 100
